The term IC50 denotes the concentration at which inhibition is half-maximal.

The results in this text go back to patent publication US20250270190A1, “KIT INHIBITORS” (BLUEPRINT MEDICINES CORPORATION, priority 2022, published 2025).

T1 sequence (P10721 26-976 V560G/V654A): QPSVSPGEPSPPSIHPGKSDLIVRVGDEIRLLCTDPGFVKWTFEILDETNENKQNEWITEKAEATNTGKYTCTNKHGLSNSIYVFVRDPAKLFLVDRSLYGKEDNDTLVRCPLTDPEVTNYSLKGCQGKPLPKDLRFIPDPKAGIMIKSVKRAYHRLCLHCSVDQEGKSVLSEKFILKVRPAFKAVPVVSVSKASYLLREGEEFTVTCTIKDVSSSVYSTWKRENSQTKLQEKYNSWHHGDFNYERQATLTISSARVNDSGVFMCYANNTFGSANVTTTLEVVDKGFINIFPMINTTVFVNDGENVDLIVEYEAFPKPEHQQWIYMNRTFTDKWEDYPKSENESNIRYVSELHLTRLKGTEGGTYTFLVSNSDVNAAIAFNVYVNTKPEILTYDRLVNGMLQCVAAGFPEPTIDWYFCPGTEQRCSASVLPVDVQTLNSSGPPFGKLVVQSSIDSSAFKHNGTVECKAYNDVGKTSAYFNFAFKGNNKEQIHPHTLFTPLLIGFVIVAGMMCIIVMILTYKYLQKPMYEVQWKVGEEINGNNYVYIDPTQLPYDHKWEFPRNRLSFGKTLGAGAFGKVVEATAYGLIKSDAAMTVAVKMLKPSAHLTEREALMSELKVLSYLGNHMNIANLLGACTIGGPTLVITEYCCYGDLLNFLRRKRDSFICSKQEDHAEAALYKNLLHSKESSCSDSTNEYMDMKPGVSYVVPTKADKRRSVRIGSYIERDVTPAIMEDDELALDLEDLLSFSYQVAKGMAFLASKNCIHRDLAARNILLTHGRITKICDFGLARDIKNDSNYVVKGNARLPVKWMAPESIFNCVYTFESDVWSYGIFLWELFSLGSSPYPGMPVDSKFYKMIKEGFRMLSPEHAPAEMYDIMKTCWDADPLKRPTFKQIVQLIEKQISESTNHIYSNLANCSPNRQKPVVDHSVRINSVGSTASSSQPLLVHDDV

The test concerns the target T1, c-kit autophosphorylation (Phospho c-Kit Tyr721) in HMC 1.1 (exon 11/13) cells, V654A (Homo sapiens, UniProt P10721, V560G/V654A).
T1 construct: endogenous in cells; host or cells: HMC 1.1 (exon 11/13) cells
The experiment in a line: pKIT Meso Scale Discovery (MSD) assay, inhibition of autophosphorylation of KIT, HMC1.1_V654A. The format is cell-based. The following applies: Table 1, cell line not named for Table 1, b1056 names pKIT HMC1.1_V654A, read-out: Code (IC50 for inhibition of autophosphorylation of KIT, pKIT MSD assay). A digest of the protocol:
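HMC1.1 cells were serum-starved for 4 h in serum-free, iron-free, phenol red-free IMDM, then treated with compound in dose-response for 90 min at 37 °C. Staurosporine and DMSO served as controls. Lysates were analysed by MSD electrochemiluminescence immunoassay for phospho-c-Kit Tyr721, and % inhibition of autophosphorylation was derived.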
With `CNC(=O)c1cnc(Nc2cc(N)nc(CF)n2)cc1NC1COC1` [Compound 19, 6-((6-amino-2-(fluoromethyl)pyrimidin-4-yl)amino)-N-methyl-4-(oxetan-3-ylamino)nicotinamide], the IC50 is greater than 40 nM.

In the case of `CNC(=O)c1cnc(Nc2cc(N)nc([C@@H](C)F)n2)cc1NC(C)C` [Compound 20, (R)-6-((6-amino-2-(1-fluoroethyl)pyrimidin-4-yl)amino)-4-(isopropylamino)-N-methylnicotinamide], the IC50 was greater than 40 nM.

In the case of `CNC(=O)c1cnc(Nc2cc(N)nc([C@H](C)F)n2)cc1NC(C)C` [Compound 21, (S)-6-((6-amino-2-(1-fluoroethyl)pyrimidin-4-yl)amino)-4-(isopropylamino)-N-methylnicotinamide], the IC50 is less than 10 nM. For the compound `CNc1cc(Nc2cc(N)nc(C(F)F)n2)ncc1C(=O)NCC#N` [Compound 22, 6-((6-amino-2-(difluoromethyl)pyrimidin-4-yl)amino)-N-(cyanomethyl)-4-(methylamino)nicotinamide], the IC50 was greater than 40 nM. For `CNC(=O)c1cnc(Nc2cc(N)nc(C(F)F)n2)cc1NC1CC1` [Compound 23, 6-((6-amino-2-(difluoromethyl)pyrimidin-4-yl)amino)-4-(cyclopropylamino)-N-methylnicotinamide], the 50% inhibitory concentration (IC50) was less than 10 nM. With `CNc1cc(Nc2cc(N)nc(C(F)F)n2)ncc1C(=O)NC1CC1` [Compound 24, 6-((6-amino-2-(difluoromethyl)pyrimidin-4-yl)amino)-N-cyclopropyl-4-(methylamino)nicotinamide], the IC50 is less than 10 nM. For `CCCNc1cc(Nc2cc(N)nc(C(F)F)n2)ncc1C(=O)NC` [Compound 26, 6-((6-amino-2-(difluoromethyl)pyrimidin-4-yl)amino)-N-methyl-4-(propylamino)nicotinamide], the half-maximal inhibitory concentration (IC50) was less than 10 nM. For `CNc1cc(Nc2cc(N)nc(C(F)F)n2)ncc1C(=O)NC(C)C` [Compound 29, 6-((6-amino-2-(difluoromethyl)pyrimidin-4-yl)amino)-N-isopropyl-4-(methylamino)nicotinamide], the IC50 was less than 10 nM. On to `CCNC(=O)c1cnc(Nc2cc(N)nc(C(F)F)n2)cc1NCC` [Compound 30, 6-((6-amino-2-(difluoromethyl)pyrimidin-4-yl)amino)-N-ethyl-4-(ethylamino)nicotinamide], for which the IC50 lay in the range of 10 to 40 nM. For the compound `[2H]C([2H])([2H])NC(=O)c1cnc(Nc2cc(N)nc(C(F)F)n2)cc1NC1CC1` [Compound 31, 6-((6-amino-2-(difluoromethyl)pyrimidin-4-yl)amino)-4-(cyclopropylamino)-N-(methyl-d3)nicotinamide], the IC50 is less than 10 nM. Then `Cn1cc(-c2cnc(Nc3cc(N)nc(CF)n3)cc2OC2CC2)cn1` [Compound 32, N4-(4-cyclopropoxy-5-(1-methyl-1H-pyrazol-4-yl)pyridin-2-yl)-2-(fluoromethyl)pyrimidine-4,6-diamine], with less than 10 nM; and `CC(C)Oc1cc(Nc2cc(N)nc(CF)n2)ncc1-c1cnn(C)c1` [Compound 33, 2-(fluoromethyl)-N4-(4-isopropoxy-5-(1-methyl-1H-pyrazol-4-yl)pyridin-2-yl)pyrimidine-4,6-diamine], with less than 10 nM.

In the case of `CCOc1cc(Nc2cc(N)nc(C(F)F)n2)ncc1-c1cnn(C)c1` [Compound 34, 2-(difluoromethyl)-N4-(4-ethoxy-5-(1-methyl-1H-pyrazol-4-yl)pyridin-2-yl)pyrimidine-4,6-diamine], the IC50 was less than 10 nM. For the compound `CNC(=O)c1cnc(Nc2cc(N)nc(CF)n2)cc1N[C@@H]1CCOC1` [Compound 35, (R)-6-((6-amino-2-(fluoromethyl)pyrimidin-4-yl)amino)-N-methyl-4-((tetrahydrofuran-3-yl)amino)nicotinamide], the IC50 was greater than 40 nM. On to `CNC(=O)c1cnc(Nc2cc(N)nc(CF)n2)cc1N[C@H]1CCOC1` [Compound 36, (S)-6-((6-amino-2-(fluoromethyl)pyrimidin-4-yl)amino)-N-methyl-4-((tetrahydrofuran-3-yl)amino)nicotinamide], for which the IC50 was greater than 40 nM. Then `CNC(=O)c1cnc(Nc2cc(N)nc(C(F)F)n2)cc1NC1CCC1` [Compound 37, 6-((6-amino-2-(difluoromethyl)pyrimidin-4-yl)amino)-4-(cyclobutylamino)-N-methylnicotinamide], with less than 10 nM; and `CCNC(=O)c1cnc(Nc2cc(N)nc(C(F)F)n2)cc1NC1CC1` [Compound 38, 6-((6-amino-2-(difluoromethyl)pyrimidin-4-yl)amino)-4-(cyclopropylamino)-N-ethylnicotinamide], with less than 10 nM; and `CCNc1cc(Nc2cc(N)nc(C(F)F)n2)ncc1C(=O)NC1CC1` [Compound 39, 6-((6-amino-2-(difluoromethyl)pyrimidin-4-yl)amino)-N-cyclopropyl-4-(ethylamino)nicotinamide], with less than 10 nM.

As to `CNC(=O)c1cnc(Nc2cc(N)nc(C(F)F)n2)cc1NC1COC1` [Compound 42, 6-((6-amino-2-(difluoromethyl)pyrimidin-4-yl)amino)-N-methyl-4-(oxetan-3-ylamino)nicotinamide], the IC50 is 10 to 40 nM. As to `CNC(=O)c1cnc(Nc2cc(N)nc(C(F)F)n2)cc1NCC(C)C` [Compound 43, 6-((6-amino-2-(difluoromethyl)pyrimidin-4-yl)amino)-4-(isobutylamino)-N-methylnicotinamide], the IC50 was less than 10 nM. Then `CNC(=O)c1cnc(Nc2cc(N)nc(CF)n2)cc1N[C@@H](C)C(F)F` [Compound 46, (S)-6-((6-amino-2-(fluoromethyl)pyrimidin-4-yl)amino)-4-((1,1-difluoropropan-2-yl)amino)-N-methylnicotinamide], with less than 10 nM. As to `CNC(=O)c1cnc(Nc2cc(N)nc(CF)n2)cc1N[C@H](C)C(F)F` [Compound 47, (R)-6-((6-amino-2-(fluoromethyl)pyrimidin-4-yl)amino)-4-((1,1-difluoropropan-2-yl)amino)-N-methylnicotinamide], the IC50 was less than 10 nM.

With `COc1cc(Nc2cc(N)nc(CF)n2)ncc1-c1cnn(C2CNC2)c1` [Compound 50, N4-(5-(1-(azetidin-3-yl)-1H-pyrazol-4-yl)-4-methoxypyridin-2-yl)-2-(fluoromethyl)pyrimidine-4,6-diamine], the IC50 was greater than 40 nM. With `CC(C)Oc1cc(Nc2cc(N)nc([C@H](C)F)n2)ncc1-c1cnn(C)c1` [Compound 51, (S)-2-(1-fluoroethyl)-N4-(4-isopropoxy-5-(1-methyl-1H-pyrazol-4-yl)pyridin-2-yl)pyrimidine-4,6-diamine], the IC50 was less than 10 nM. Consider `COc1cc(Nc2cc(N)nc(C(F)F)n2)ncc1-c1cnn(C2CC2)c1` [Compound 52, N4-(5-(1-cyclopropyl-1H-pyrazol-4-yl)-4-methoxypyridin-2-yl)-2-(difluoromethyl)pyrimidine-4,6-diamine], for which the IC50 was less than 10 nM. Turning to `Cn1cc(-c2cnc(Nc3cc(N)nc(C(F)F)n3)cc2OC2CC2)cn1` [Compound 53, N4-(4-cyclopropoxy-5-(1-methyl-1H-pyrazol-4-yl)pyridin-2-yl)-2-(difluoromethyl)pyrimidine-4,6-diamine], the IC50 was less than 10 nM. As to `N#CCNC(=O)c1cnc(Nc2cc(N)nc(C(F)F)n2)cc1NC1CC1` [Compound 54, 6-((6-amino-2-(difluoromethyl)pyrimidin-4-yl)amino)-N-(cyanomethyl)-4-(cyclopropylamino)nicotinamide], the IC50 lay in the range of 10 to 40 nM.
